US5817685A, “Anticonvulsive imidazoline-2,4-diones and process for making” (Arzneimittelwerk Dresden GmbH, priority 1996, dated 1998)
Read-outs that look alike come from different tables or passages of the source.

Columns and labels:
[1] = test system: seizures (maximum electroshock model, pentetrazol test); test: anticonvulsive action in mouse animal models (maximum electroshock and pentetrazol); type: in vivo; conditions: comparison with known antiepileptics
Protocol: They were tested for their anticonvulsive action in vivo after i.p. administration using the international customary mouse animal models described in Pharmac Weekblad, Sc. Ed. The most commonly used chemoconvulsant is pentetrazol which can be used as a primary screen for anticonvulsant activity when dosages that produce hindlimb tonic extension are administered. […] This test using pentetrazol to induce seizures, used as a primary screen of anticonvulsant activity is referred to in the results below as PEZ. Seizures can also be induced electrically for the identification of anticonvulsant activity. […] A […] (60 Hz) electrical current for 0.2 s is delivered by a corneal electrode to mice. The current is four to five times as large as the threshold current needed to produce the tonic seizure. These specific parameters are used to identify compounds that prevent seizure spread, therapeutic agents for generalized tonic clonic seizures. […] However, when the current is lowered to […], compounds which modify both seizure spread and seizure threshold are identified.

[2] = test system: electrically induced seizures (maximum electroshock); test: maximum electroshock (MES) test in mice; type: in vivo, mouse; conditions: ip
Protocol: (§1) They were tested for their anticonvulsive action in vivo after i.p. administration using the international customary mouse animal models described in Pharmac Weekblad, Sc. Ed.
Seizures can also be induced electrically for the identification of anticonvulsant activity. This test is referred to as the MES test for identifying CNS active drugs. A […] (60 Hz) electrical current for 0.2 s is delivered by a corneal electrode to mice. The current is four to five times as large as the threshold current needed to produce the tonic seizure. These specific parameters are used to identify compounds that prevent seizure spread, therapeutic agents for generalized tonic clonic seizures. Therapeutic agents for absence of seizures are undetected. However, when the current is lowered to […], compounds which modify both seizure spread and seizure threshold are identified.
^1 MES = maximum electroshock

[3] = test system: pentetrazol-induced seizures; test: s.c. pentetrazol (PTZ) test in mice; type: in vivo; conditions: mouse
Protocol: as §1
The most commonly used chemoconvulsant is pentetrazol which can be used as a primary screen for anticonvulsant activity when dosages that produce hindlimb tonic extension are administered. A dose of pentetrazol that produces solely clonic seizures cannot be used as primary screen for new compounds, as phenytoin and carbamazepine have no effect on the blocking of clonic seizures. This test using pentetrazol to induce seizures, used as a primary screen of anticonvulsant activity is referred to in the results below as PEZ.
^2 PTZ = S. C. pentetrazol

clonic seizures = conditions: dose of pentetrazol that produces solely clonic seizures; cited from earlier work
[4] = octanol-H2O partition coefficient; type: physicochemical; conditions: octanol-water, read-out: Log p (octanol-H2O) partition coeff.
in vivo = conditions: mouse, ip
[5] = mouse, i.p., dose 100 mg/kg, read-out: Action % of Animals, MES
[6] = ip, i.p., read-out: Action % of Animals, PTZ
[7] = mouse, i.p., read-out: Action % of Animals, MES

Row | logP [4] | SMILES | responders at 100 mg/kg [2, 5] [%] | responders at 100 mg/kg [3, 6] [%] | responders at 30 mg/kg [2, 7] [%] | further results
1 | – | NC(=O)N1c2ccccc2C=Cc2ccccc21 [Carbamazepine, reference compound] | 100 | 0 | – | activity in maximum electroshock model or pentetrazol test [1]: active either in the maximum electroshock model, or in the pentetrazol test, but not in both; effect on the blocking of clonic seizures (clonic seizures): no effect
2 | 1.12 | O=C1CN(Cc2ccccc2Cl)C(=O)N1 [Example 6, 1-(2-chlorobenzyl)imidazoline-2,4-dione] | – | – | 100 | responders at 30 mg/kg [3, 6]: 100%
3 | 1.16 | O=C1CN(c2cccc(Cl)c2Cl)C(=O)N1 [Example 2, 1-(2,3-dichlorophenyl)imidazoline-2,4-dione] | 100 | 100 | – | –
4 | 0.49 | O=C1CN(c2ccccc2Cl)C(=O)N1 [Example 1, 1-(2-chlorophenyl)imidazoline-2,4-dione] | – | – | – | responders at 300 mg/kg ([2]; mouse, i.p., dose 300 mg/kg, read-out: Action % of Animals, MES): 100%; responders at 300 mg/kg ([3]; ip, i.p., dose 300 mg/kg, read-out: Action % of Animals, PTZ): 0%
5 | 1.44 | O=C1CN(Cc2c(Cl)cccc2Cl)C(=O)N1 [Example 7, 1-(2,6-dichlorobenzyl)imidazoline-2,4-dione] | 100 | 100 | – | –
6 | 0.86 | Cc1cc(Cl)ccc1N1CC(=O)NC1=O [Example 5, 1-(4-chloro-2-methylphenol)imidazoline-2,4-dione] | – | – | 100 | responders at 30 mg/kg [3, 6]: 100%
7 | – | O=C1CN(Cc2ccccc2C(F)(F)F)C(=O)N1 [Example 9] | – | – | 100 | responders at 30 mg/kg [3, 6]: 100%
8 | 0.69 | O=C1CN(c2c(Cl)cccc2Cl)C(=O)N1 [Example 3, 1-(2,6-dichlorophenyl)imidazoline-2,4-dione] | – | 100 | 100 | –
9 | – | CCCC(CCC)C(=O)O [Valproate, reference compound] | – | 0 | – | responders at 100 mg/kg ([2]; Mus musculus, read-out: Action % of Animals, MES): 0%
10 | – | O=C1NC(=O)C(c2ccccc2)(c2ccccc2)N1 [phenytoin] | – | – | – | effect on the blocking of clonic seizures (clonic seizures): no effect
11 | – | O=C1CN(c2ccccc2F)C(=O)N1 [Example 4, 1-(2-fluorophenyl)imidazoline-2,4-dione] | 100 | 100 | – | –
12 | – | CCCC(CCC)C(=O)O [calcium valproate] | – | – | – | activity in maximum electroshock model or pentetrazol test [1]: active either in the maximum electroshock model, or in the pentetrazol test, but not in both

Row | SMILES | logP [4] | responders at 100 mg/kg [2, 5] [%] | responders at 100 mg/kg [3, 6] [%] | responders at 30 mg/kg [2, 7] [%] | further results
13 | O=C1CN(Cc2c(F)cccc2F)C(=O)N1 [Example 8, 1-(2,6-difluorobenzyl)imidazoline-2,4-dione] | 0.63 | 100 | 100 | – | TD50 (in vivo): 123 mg/kg; ED50 ([2]; mouse): 36 mg/kg; ED50 ([3]; sc): 50 mg/kg
